In patent US20220249591A1, “COMPOSITION FOR THE TREATMENT OF EMOTIONAL DISORDERS” (priority 2019, published 2022):
Marks after values point to notes of the source that are not given here.

What was measured:
Assay type in all cases: in vivo
[1] = tested on: 6-month-old stressed mice (UCMS); experiment: Open field test (anxiety behavior) in UCMS-stressed mice; conditions: induced model (UCMS) mice, n = 12, after 21 days of daily oral gastric intubation (glutamine 24 mg, curcuma extract 1.2 mg, L. rhamnosus GG 0.120 mg per mouse); clomipramine 10 mg/kg intraperitoneal; 5 min session
Protocol: The solutions were administered orally by gastric intubation to mice (1 tube-feed per day).
The preparation of the solutions is performed extemporaneously and the administration is performed in the morning. During the behavioral sessions, the solutions are administered one hour before the start of the session. The gastric incubation always takes place in a different room from the one in which the behavioral test is performed.
In order to evaluate the results obtained with the solutions, one group of mice received a parenteral administration of a tricyclic antidepressant (clomipramine). The mice were divided into independent groups according to the following treatments:
For each group, the administration of the various solutions lasts 21 consecutive days (3 weeks). The behavioral tests are performed 4 weeks after induction of the model (“elevated plus maze” and “tail suspension”) and 3 weeks after the daily intubations (“open field” and “forced swim”).
The open field test is a circular arena (ø 1 m) surrounded by an opaque wall 25 cm tall placed in a room with uniform lighting of 70 lux. The mice are placed facing the wall at the periphery of the arena and can explore freely for 5 minutes. The area of the open field is practically divided into a peripheral zone (12 cm wide) and a central zone (the remaining area of the arena). The time (in seconds) spent in the central zone is automatically noted by videotracking. The more time a mouse spends in the central zone, the less anxious it is.
The anxiety behavior was evaluated by means of the open field test. The mean time spent by the mice at the center of the apparatus is measured.

[2] = tested on: 6-month-old stressed mice (UCMS); experiment: Forced swim test (Porsolt; depressive behavior) in UCMS-stressed mice
Protocol: The solutions were administered orally by gastric intubation to mice (1 tube-feed per day). The preparation of the solutions is performed extemporaneously and the administration is performed in the morning. During the behavioral sessions, the solutions are administered one hour before the start of the session. The gastric incubation always takes place in a different room from the one in which the behavioral test is performed. […] The mice were divided into independent groups according to the following treatments: For each group, the administration of the various solutions lasts 21 consecutive days (3 weeks). The behavioral tests are performed 4 weeks after induction of the model (“elevated plus maze” and “tail suspension”) and 3 weeks after the daily intubations (“open field” and “forced swim”). The forced swim test (Porsolt) is a test commonly used for evaluating depressive behavior in mice. This test is based on behavioral despair. […] An animal displaying depressive behaviour will spend more time immobile than the non-depressive control mouse. After the session, the animal is dried and placed under warm light. Three parameters for evaluating the depressive behaviour are noted: the time spent swimming, the time spent climbing and the time spent immobile for each animal and also their respective percentage.

[3] = tested on: intestinal microbiota of the stressed mice; experiment: Composition of the fecal microbiota by analysis of the 16S rRNA; conditions: before vs after treatment, relative to placebo group
Protocol: The composition of the microbiota of the animals was analyzed in order to determine the influence of the formula on the bacterial composition of the fecal microbiota of the stressed mice and to compare it with the influence of the drug or of the placebo.
The animals' feces were sampled in order for a DNA extraction to be performed (Zymo Research based kits). The V3-V4 regions of the 16S rRNA gene are amplified and sequencing is performed on an ILLUMINA MiSeq system using the 2*250 bp mode. Sequence analysis is performed after correction using SPAdes ([…]) and regrouping is performed using PEAR (Zhang J. et al. Bioinformatics 2014; 30(5): 614-20). The OTUs (Operational Taxonomic Units) are identified with the Vsearch tool (Rognes T. et al. Peer J., 2016; 4: e2584), the taxonomic classification arising therefrom was performed by means of the RDP (Ribosomal Database Project) database.
The majority of the diversity studies based on 16S rDNA define the OTUs as being sets of sequences having at least 97% identity with each other. The OTUs are, in point of fact, the unit for measuring the specific richness in microbial ecology.
The statistical analyses were performed using the R program (Team RDC. R: A Language and Environment for Statistical Computing. 2012, Austria: R Foundation for Statistical Computing) and various packets (Ade4, Vegan). […]

[4] = induced model (UCMS) mice, n = 12, after 21 days of daily oral gastric intubation, clomipramine 10 mg/kg intraperitoneal, 6 min session

Compound	Open field test Mean (seconds): time spent in the central zone [1] [s]	Forced swim test swimming time, effect in words ([2]; compared with the other groups, 21 days treatment)	Beta-diversity of the intestinal microbiota (PCoA), change of microbiotal profile, in words [3]	Forced swim test Climbing (dry) [2, 4]	Forced swim test Immobility (dry) [2, 4]	Forced swim test Swimming (dry) [2, 4] [s]
CN(C)CCCN1c2ccccc2CCc2ccc(Cl)cc21 [Clomipramine, reference compound]	56.8	spending more time swimming when compared with the other groups	would stabilize the dysbiosis induced by the 4 weeks of stress relative to the placebo group	–	–	–
NC(=O)CC[C@H](N)C(=O)O [Glutamine]	42.9	–	–	–	–	–
Lactobacillus rhamnosus GG	41.6	–	–	113.5* s	106.8* s	139.8
